Read-outs that look alike come from different tables or passages of the source.
Legend:
Format in all cases: in vivo
[1] = test system: Tetranychus urticae; assay: Tetranychus urticae - spray test, OP-resistant (Example A, French bean leaf disks); conditions: for pest or weed control at 1.2 g/ha: 1.2 g ai/ha
Text: (§1) E is the efficacy expressed in % mortality of the untreated control using the mixture of A and B at m and n ppm respectively m and n g/ha, • then is
Tetranychus urticae—Spray Test OP-Resistant
Solvent: 78.0 parts by weight acetone • 1.5 parts by weight dimethylformamide
Emulsifier: alkylarylpolyglycol ether […]
French bean (Phaseolus vulgaris) leaf disks infected with all instars of the two spotted spidermite (Tetranychus urticae), are sprayed with a preparation of the active ingredient of the desired concentration.
After the specified period of time, mortality in % is determined. 100% means all spider mites have been killed and 0% means none of the spider mites have been killed. The mortality values determined thus are recalculated using the Colby-formula (see above).

[2] = test system: Tetranychus urticae; assay: Tetranychus urticae - spray test, OP-resistant (Example B, infested bean plants); conditions: single active ingredient, mortality
Protocol: as §1
Tetranychus urticae—Spray Test; OP-Resistant
(§2) Solvent: 7 parts by weight of dimethylformamide
Emulsifier: alkylaryl polyglycol ether
Further test concentrations are prepared by dilution with emulsifier containing water.
After the specified period of time mortality in % is determined. 100% means all the spider mites have been killed and 0% means none of the spider mites have been killed. The mortality values determined thus are recalculated using the Colby-formula (see above).

[3] = test system: Meloidogyne incognita; assay: Meloidogyne incognita - test (Example D, soil drench, salad seeds, gall formation); conditions: single active ingredient, reduction of gall formation
Protocol: The expected efficacy of a given combination of two compounds is calculated as follows (see Colby, S. R., “Calculating Synergistic and antagonistic Responses of Herbicide Combinations”, Weeds 15, pp. 20-22, 1967): • If • X is the efficacy expressed in % mortality of the untreated control for test compound A at a concentration of m ppm respectively m g/ha, • Y is the efficacy expressed in % mortality of the untreated control for test compound B at a concentration of n ppm respectively n g/ha,
as §1
[formula] • If the observed insecticidal efficacy of the combination is higher than the one calculated as “E”, then the combination of the two compounds is more than additive, i.e., there is a synergistic effect.
Meloidogyne incognita—Test
as §2
Emulsifier: 2.5 parts by weight of alkylarylpolyglycolether
To produce a suitable preparation of active compound, 1 part by weight of active compound is mixed with the stated amount of solvent and emulsifier and is diluted with water to the desired concentration. To produce a suitable preparation of a spore suspension the spores are diluted with emulsifier containing water to the desired concentration. In the calculation of the concentration the soil volume has to be included. […] Further test concentrations are prepared by dilution with water.
The compound solution is poured into pots filled with soil (loamy sand). A suspension containing eggs and larvae of the southern root-knot nematode (Meloidogyne incognita) is added, salad seeds are spread on the soil surface and covered with quartz sand. The salad seeds germinate and the seedlings grow. Galls develop on the roots.
After the specified period of time the nematicidal activity is determined on the basis of the percentage of gall formation. 100% means no galls were found; 0% means the number of galls found on the roots of the treated plants was equal to that in untreated control plants. The activity determined thus is recalculated using the Colby-formula (see above).

[4] = test system: Meloidogyne incognita; assay: Meloidogyne incognita - test (Example C, sand, salad seeds, gall formation); conditions: single active ingredient, reduction of gall formation
Protocol: Meloidogvne incognita—Test
Solvent: 125.0 parts by weight of acetone
To produce a suitable preparation of active compound, 1 part by weight of active compound is mixed with the stated amount of solvent, and the concentrate is diluted with water to the desired concentration.
To produce a suitable preparation of a spore suspension the spores are diluted with water to the desired concentration.
Vessels are filled with sand, a solution of the active ingredient, a suspension containing eggs and larvae of the southern root-knot nematode (Meloidogyne incognita) and salad seeds. The salad seeds germinate and the seedlings grow. Galls develop in the roots.
After the specified period of time nematicidal activity is determined on the basis of the percentage of gall formation. 100% means no galls were found and 0% means the number of galls found on the roots of the treated plants was equal to that in untreated control plants.

[5] = Tetranychus urticae, foliar, 144 h, single active ingredient, mortality, read-out: Efficacy in % after 6 days
[6] = 0.5 g ai/ha, single active ingredient, mortality
[7] = Tetranychus urticae, foliar, 144 h, read-out: Efficacy in % after 6 days
[8] = Tetranychus urticae, foliar, 144 h, 0.5 g ai/ha, single active ingredient, mortality, read-out: Efficacy in % after 6 days

SMILES: CCCCCCCCCCCCC1=C(OC(C)=O)C(=O)c2ccccc2C1=O [Acequinocyl, acequinocyl]
- Efficacy in % after 2 days ([1]; 1 g ai/ha, single active ingredient, mortality): 0%
- pest or weed control at 1 g/ha ([1]; Tetranychus urticae, foliar, 144 h, 1 g ai/ha, single active ingredient, mortality, read-out: Efficacy in % after 6 days): 0%

SMILES: COc1ccc(-c2ccccc2)cc1NNC(=O)OC(C)C [Bifenazate]
- pest or weed control at 0.25 g/ha ([1]; Tetranychus urticae, foliar, 144 h, 0.25 g ai/ha, single active ingredient, mortality, read-out: Efficacy in % after 6 days): 0%
- pest or weed control at 1.8 g/ha ([1]; Tetranychus urticae, foliar, 144 h, 1.8 g ai/ha, single active ingredient, mortality, read-out: Efficacy in % after 6 days): 0%
- Efficacy in % after 7 days ([2]; 2 ppm): 65%

SMILES: Cc1cc(F)c(N=C2SCC(=O)N2CC(F)(F)F)cc1[S+]([O-])CC(F)(F)F (centres unmarked) [Cpd of formula (I)]
- pest or weed control at 1.2 g/ha [1, 5]: 70%
- Efficacy in % after 7 days ([2]; 0.2 ppm): 0%
- Efficacy in % after 4 days ([2]; 0.4 ppm): 0%
- Efficacy in % after 7 days ([2]; 0.4 ppm): 10%
- Efficacy in % after 4 days ([2]; 0.8 ppm): 25%
- Efficacy in % after 20 days ([3]; 10 ppm): 0%
- Efficacy in % after 20 days ([3]; 20 ppm): 15%

SMILES: O=C(Nc1ccn(-c2c(F)cccc2F)n1)c1ccccc1C(F)(F)F [Cpd of formula (IIb), N-[1-(2,6-difluorophenyl)-1H-pyrazol-3-yl]-2-(trifluoromethyl)benzamide]
- Efficacy in % after 14 days ([4]; 1.5 ppm): 0%
- Efficacy in % after 20 days ([3]; 0.4 ppm): 0%

SMILES: CC(C)c1cc(Oc2ccccc2)cc(C(C)C)c1NC(=S)NC(C)(C)C [Diafenthiuron, diafenthiuron]
- Efficacy in % after 2 days [1, 6]: 0%
- pest or weed control at 0.5 g/ha [1, 7]: 0%
- pest or weed control at 3 g/ha [1, 7]: 0%
- Efficacy in % after 7 days ([2]; 3.2 ppm): 15%

SMILES: CC(C)(C)c1ccc(CCOc2ncnc3ccccc23)cc1 [Fenazaquin, fenazaquin]
- pest or weed control at 1.2 g/ha [1, 5]: 0%
- pest or weed control at 2.4 g/ha ([1]; Tetranychus urticae, foliar, 144 h, 2.4 g ai/ha, single active ingredient, mortality, read-out: Efficacy in % after 6 days): 0%

SMILES: Cc1nn(C)c(Oc2ccccc2)c1C=NOCc1ccc(C(=O)OC(C)(C)C)cc1 [Fenpyroximate, fenpyroximate]
- pest or weed control at 0.2 g/ha [1, 7]: 0%

SMILES: COc1ccc(Cl)c(S(=O)(=O)NC(=O)c2cn3cc(C(F)(F)F)cc(Cl)c3n2)c1 [Fluazaindolizine]
- Efficacy in % after 14 days ([4]; 0.025 ppm): 0%
- Efficacy in % after 20 days ([3]; 0.2 ppm): 0%
- Efficacy in % after 20 days ([3]; 0.4 ppm): 40%

SMILES: O=S(=O)(CCC(F)=C(F)F)c1ncc(Cl)s1 [Fluensulfone]
- Efficacy in % after 14 days ([4]; 0.1 ppm): 0%
- Efficacy in % after 14 days ([4]; 0.2 ppm): 0%
- Efficacy in % after 20 days ([3]; 0.4 ppm): 0%

SMILES: O=C(NCCc1ncc(C(F)(F)F)cc1Cl)c1ccccc1C(F)(F)F [Fluopyram]
- Efficacy in % after 20 days ([3]; 0.04 ppm): 0%
- Efficacy in % after 20 days ([3]; 0.08 ppm): 0%

SMILES: CNC(=O)Oc1cc(C)c(SC)c(C)c1 [Methiocarb, 4-methylthio-3,5-xylyl methylcarbamate]
- pest or weed control at 6 g/ha ([1]; Tetranychus urticae, foliar, 144 h, 6 g ai/ha, single active ingredient, mortality, read-out: Efficacy in % after 6 days): 0%
- pest or weed control at 12 g/ha ([1]; Tetranychus urticae, foliar, 144 h, 12 g ai/ha, single active ingredient, mortality, read-out: Efficacy in % after 6 days): 0%

SMILES: CC(C)(C)c1ccc(CSc2cnn(C(C)(C)C)c(=O)c2Cl)cc1 [Pyridaben, pyridaben]
- pest or weed control at 0.5 g/ha [1, 8]: 0%

SMILES: CCc1nn(C)c(C(=O)NCc2ccc(C(C)(C)C)cc2)c1Cl [Tebufenpyrad, tebufenpyrad]
- Efficacy in % after 2 days [1, 6]: 0%
- pest or weed control at 0.5 g/ha [1, 8]: 0%

SMILES: c1ccc(-c2noc(-c3cccs3)n2)cc1 [Tioxazafen]
- Efficacy in % after 20 days ([3]; 1.25 ppm): 0%
